PubChem BioAssay AID1845198 (Molecular Pharmacology Branch, DTP, NCI, 2023)

Test system: 425362-245-T-J1 tumor spheroids, viability % test/control
Assay: Anticancer human tumor 425362-245-T-J1 patient-derived melanoma cell line growth inhibition
Settings: spheroids with HUVEC and MSC; for IC50: curve of first compound; for viability, T/C: stronger effect = lower value
In short: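 Single agents and combinations were tested on spheroids built from tumor cells plus HUVEC and hMSC, at half-log dilutions starting at or near clinical Cmax, else 10 microM; final DMSO 0.25% (v/v).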

[1] = second compound 1 µM, first compound 0.00949 µM
[2] = second compound 1 µM, first compound 0.03 µM
[3] = second compound 1 µM, first compound 0.0949 µM
[4] = second compound 1 µM, first compound 0.3 µM
[5] = second compound 1 µM, first compound 0.949 µM
[6] = second compound 1 µM, first compound 3 µM
[7] = second compound 3.16 µM, first compound 0.00949 µM
[8] = second compound 3.16 µM, first compound 0.03 µM
[9] = second compound 3.16 µM, first compound 0.0949 µM
[10] = second compound 3.16 µM, first compound 0.3 µM
[11] = second compound 3.16 µM, first compound 0.949 µM
[12] = second compound 3.16 µM, first compound 3 µM
[13] = second compound 10 µM, first compound 0.00949 µM
[14] = second compound 10 µM, first compound 0.03 µM
[15] = second compound 10 µM, first compound 0.0949 µM
[16] = second compound 10 µM, first compound 0.3 µM
[17] = second compound 10 µM, first compound 0.949 µM
[18] = second compound 10 µM, first compound 3 µM
[19] = second compound 31.6 µM, first compound 0.00949 µM
[20] = second compound 31.6 µM, first compound 0.03 µM
[21] = second compound 31.6 µM, first compound 0.0949 µM
[22] = second compound 31.6 µM, first compound 0.3 µM
[23] = second compound 31.6 µM, first compound 0.949 µM
[24] = second compound 31.6 µM, first compound 3 µM
[25] = second compound 100 µM, first compound 0.00949 µM
[26] = second compound 100 µM, first compound 0.03 µM
[27] = second compound 100 µM, first compound 0.0949 µM
[28] = second compound 100 µM, first compound 0.3 µM
[29] = second compound 100 µM, first compound 0.949 µM
[30] = second compound 100 µM, first compound 3 µM
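Note: spheroids exposed to agents for 7 days.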

| SMILES | IC50 (second compound 1 µM) | IC50 (second compound 3.16 µM) | IC50 (second compound 10 µM) | IC50 (second compound 31.6 µM) | IC50 (second compound 100 µM) | viability, T/C [3] | viability, T/C [4] | viability, T/C [5] | viability, T/C [6] | viability, T/C [9] | viability, T/C [10] | viability, T/C [11] | viability, T/C [12] | viability, T/C [15] | viability, T/C [16] | viability, T/C [17] | viability, T/C [18] | viability, T/C [21] | viability, T/C [22] | viability, T/C [23] | further results |
| --- | --- | --- | --- | --- | --- | --- | --- | --- | --- | --- | --- | --- | --- | --- | --- | --- | --- | --- | --- | --- | --- |
| CNCc1ccc(-c2cc(-c3nc(-c4ccc(S(=O)(=O)C(C)C)cc4)cnc3N)on2)cc1 + Cn1nnc2c(C(N)=O)ncn2c1=O | 82.2 nM | 142 nM | 120 nM | 109 nM | 63.7 nM | 45.2% | 6.29% | 3.41% | 0.13% | 72.2% | 9.15% | 3.94% | 0.13% | 61% | 9.28% | 2.96% | 0.12% | 56.2% | 7.24% | 2.97% | viability, T/C [1]: 103%; viability, T/C [2]: 89.2%; viability, T/C [7]: 99.2%; viability, T/C [8]: 93.1%; viability, T/C [13]: 111%; viability, T/C [14]: 101%; viability, T/C [19]: 95.4%; viability, T/C [20]: 105%; viability, T/C [24]: 0.11%; viability, T/C [25]: 92.7%; viability, T/C [26]: 81.9%; viability, T/C [27]: 33.1%; viability, T/C [28]: 4.28%; viability, T/C [29]: 4.13%; viability, T/C [30]: 0.16% |
| Cc1sc2c(c1C)C(c1ccc(Cl)cc1)=NC(CC(=O)Nc1ccc(O)cc1)c1nnc(C)n1-2 (stereo not given) + Cn1nnc2c(C(N)=O)ncn2c1=O | 82.7 nM | 86.4 nM | 108 nM | 108 nM | 85.7 nM | 44.5% | 11.4% | 4.19% | 4.22% | 47.6% | 15.7% | 3.45% | 2.88% | 57.5% | 8.87% | 3.57% | 2.37% | 54.1% | 16.9% | 4% | viability, T/C [1]: 85.8%; viability, T/C [2]: 86.8%; viability, T/C [7]: 110%; viability, T/C [8]: 86.2%; viability, T/C [13]: 106%; viability, T/C [14]: 90%; viability, T/C [19]: 103%; viability, T/C [20]: 92%; viability, T/C [24]: 2.29%; viability, T/C [25]: 84.8%; viability, T/C [26]: 90.5%; viability, T/C [27]: 45.6%; viability, T/C [28]: 10.6%; viability, T/C [29]: 3.44%; viability, T/C [30]: 1.57% |
| Cn1ncnc1[C@H]1c2n[nH]c(=O)c3cc(F)cc(c23)N[C@@H]1c1ccc(F)cc1 + Cn1nnc2c(C(N)=O)ncn2c1=O | 24.5 nM | 13.5 nM | 12.6 nM | < 9.49 nM | < 9.49 nM | 27% | 12.1% | 9.08% | 2.19% | 19.1% | 14.3% | 7.67% | 2.76% | 15.8% | 13.2% | 7% | 3.32% | 9.07% | 7.7% | 5.14% | viability, T/C [1]: 59.9%; viability, T/C [2]: 48.6%; viability, T/C [7]: 54.8%; viability, T/C [8]: 40.1%; viability, T/C [13]: 57.8%; viability, T/C [14]: 26.8%; viability, T/C [19]: 27.6%; viability, T/C [20]: 12%; viability, T/C [24]: 2.14%; viability, T/C [25]: 7.96%; viability, T/C [26]: 7.44%; viability, T/C [27]: 5.25%; viability, T/C [28]: 4.75%; viability, T/C [29]: 4.31%; viability, T/C [30]: 2.46% |
| O=C(c1cc(Cc2n[nH]c(=O)c3ccccc23)ccc1F)N1CCN(C(=O)C2CC2)CC1 + Cn1nnc2c(C(N)=O)ncn2c1=O | 3100 nM | 3280 nM | 2520 nM | 2040 nM | 233 nM | 88.6% | 86.2% | 71.6% | 55.6% | 97.8% | 87.7% | 83.5% | 54.6% | 101% | 85.2% | 80.2% | 45.8% | 96.5% | 83.8% | 69.7% | viability, T/C (second compound 1 µM, first compound 9.49 µM): 12%; viability, T/C (second compound 1 µM, first compound 30 µM): 6.69%; viability, T/C (second compound 3.16 µM, first compound 9.49 µM): 12.8%; viability, T/C (second compound 3.16 µM, first compound 30 µM): 7.75%; viability, T/C (second compound 10 µM, first compound 9.49 µM): 13.1%; viability, T/C (second compound 10 µM, first compound 30 µM): 6.66%; viability, T/C [24]: 44.4%; viability, T/C (second compound 31.6 µM, first compound 9.49 µM): 6.18%; viability, T/C (second compound 31.6 µM, first compound 30 µM): 6.01%; viability, T/C [27]: 68.1%; viability, T/C [28]: 43.8%; viability, T/C [29]: 26.7%; viability, T/C [30]: 10%; viability, T/C (second compound 100 µM, first compound 9.49 µM): 4.29%; viability, T/C (second compound 100 µM, first compound 30 µM): 3.96% |
